Assay results as given in ChEMBL document CHEMBL1201862, “PubChem BioAssay data set” (2004).
The source made the active and inactive calls.

What was measured:
[1] = biological target: T1, Tyrosyl-DNA phosphodiesterase 2 (Homo sapiens, UniProt O95551); experiment: potency against TDP2 phosphodiesterase activity – biochemical, epi absorbance, IC50, dose response (AID 743297)
T1 sequence (O95551 whole entry): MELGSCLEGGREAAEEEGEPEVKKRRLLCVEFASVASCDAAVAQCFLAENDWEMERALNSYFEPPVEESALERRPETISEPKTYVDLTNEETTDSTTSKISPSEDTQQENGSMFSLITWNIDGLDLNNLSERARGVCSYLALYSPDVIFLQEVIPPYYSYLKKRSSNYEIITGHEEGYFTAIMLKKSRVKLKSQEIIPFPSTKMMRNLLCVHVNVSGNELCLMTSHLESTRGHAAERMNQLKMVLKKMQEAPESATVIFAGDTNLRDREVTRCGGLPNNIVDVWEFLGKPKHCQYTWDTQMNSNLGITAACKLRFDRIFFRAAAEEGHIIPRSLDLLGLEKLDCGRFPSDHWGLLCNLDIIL

[2] = biological target: T2, Histone-lysine N-methyltransferase NSD2 (Homo sapiens, UniProt O96028); assay type: biochemical
T2 sequence (O96028 whole entry): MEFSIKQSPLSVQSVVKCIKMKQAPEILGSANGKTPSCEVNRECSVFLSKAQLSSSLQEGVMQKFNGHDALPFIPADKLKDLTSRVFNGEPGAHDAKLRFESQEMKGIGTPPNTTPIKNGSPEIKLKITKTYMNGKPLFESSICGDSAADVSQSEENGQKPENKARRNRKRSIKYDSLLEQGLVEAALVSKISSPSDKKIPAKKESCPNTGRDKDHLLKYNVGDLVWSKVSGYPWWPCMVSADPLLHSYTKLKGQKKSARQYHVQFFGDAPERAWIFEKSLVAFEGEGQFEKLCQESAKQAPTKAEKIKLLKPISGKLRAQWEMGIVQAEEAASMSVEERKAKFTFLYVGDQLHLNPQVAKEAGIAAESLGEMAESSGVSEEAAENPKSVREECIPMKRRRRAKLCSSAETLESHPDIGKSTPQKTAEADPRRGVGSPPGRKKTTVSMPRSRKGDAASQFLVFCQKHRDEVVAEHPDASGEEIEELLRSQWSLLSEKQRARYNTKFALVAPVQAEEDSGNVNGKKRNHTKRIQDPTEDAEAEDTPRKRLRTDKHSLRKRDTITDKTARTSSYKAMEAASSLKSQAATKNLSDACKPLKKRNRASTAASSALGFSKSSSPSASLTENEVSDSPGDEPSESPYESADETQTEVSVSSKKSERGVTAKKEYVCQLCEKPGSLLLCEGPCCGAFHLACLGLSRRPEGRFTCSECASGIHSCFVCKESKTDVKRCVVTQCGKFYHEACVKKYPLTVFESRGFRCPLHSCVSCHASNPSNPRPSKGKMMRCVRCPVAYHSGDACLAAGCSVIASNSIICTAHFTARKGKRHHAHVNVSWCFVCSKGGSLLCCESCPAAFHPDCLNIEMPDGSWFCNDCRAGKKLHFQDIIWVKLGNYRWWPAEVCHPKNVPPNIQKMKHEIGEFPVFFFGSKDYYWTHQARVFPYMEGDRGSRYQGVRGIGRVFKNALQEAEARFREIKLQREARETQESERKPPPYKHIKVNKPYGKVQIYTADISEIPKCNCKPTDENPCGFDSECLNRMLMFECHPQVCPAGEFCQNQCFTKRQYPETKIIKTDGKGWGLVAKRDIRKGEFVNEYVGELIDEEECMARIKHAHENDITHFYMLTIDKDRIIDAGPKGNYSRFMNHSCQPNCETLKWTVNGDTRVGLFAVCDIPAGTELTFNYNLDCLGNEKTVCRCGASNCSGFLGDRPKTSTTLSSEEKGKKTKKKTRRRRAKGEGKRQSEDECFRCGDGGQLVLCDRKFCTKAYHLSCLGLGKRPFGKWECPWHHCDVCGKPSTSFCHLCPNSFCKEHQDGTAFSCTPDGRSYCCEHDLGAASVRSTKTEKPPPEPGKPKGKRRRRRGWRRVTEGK

[3] = biological target: T3, Sentrin-specific protease 8 (Homo sapiens, UniProt Q96LD8); assay type: functional
T3 sequence (Q96LD8 whole entry): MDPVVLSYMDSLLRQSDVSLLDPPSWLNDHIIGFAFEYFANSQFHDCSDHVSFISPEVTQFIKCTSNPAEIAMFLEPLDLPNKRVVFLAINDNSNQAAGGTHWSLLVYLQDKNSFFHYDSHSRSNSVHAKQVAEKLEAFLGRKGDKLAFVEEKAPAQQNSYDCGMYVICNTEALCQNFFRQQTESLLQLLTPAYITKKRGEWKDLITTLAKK

[4] = biological target: T3, Sentrin-specific protease 8; assay type: functional; remark: listed apart in the source

Row | SMILES | IC50 [1] | AC50 [2] | IC50 [3] | IC50 [4]
1 | CC(C)=CCC1=C(OCC(=O)O)C(=O)c2ccccc2C1=O | 23.6 µM (inactive) | 3.99 µM (active) |  | 
2 | Cc1[nH][nH]c(=O)c1C(c1c(C)[nH][nH]c1=O)c1cn(Cc2ccccc2Cl)c2ccccc12 | 54.2 µM (inactive) | 17.8 µM (active) | 4.8 µM (active) | 4.89 µM (active)
